Where two headings read alike, the source gives them in different places.
Experiment: In vivo rat tracer distribution and brain uptake (LC-MS/MS)
Design: species or system Sprague-Dawley rats
Conditions: Sprague-Dawley, iv, 10 μg/kg i.v.
Protocol: Stock Formulation: Prepare a tracer stock solution at 0.5 mg/mL in 25% HP-BCD/PW (corrected for salt weight). Vortex thoroughly for 30 sec and place in bath sonication for 30 mins. Confirm the stock formulation is a clear solution or homogeneous suspension. Acid (10 μL acetic acid) or base (10 μL 5N NaOH), probe sonication, or a sonic bath may be used to aid in solubilization.
Final Dosing Formulation: If the stock formulation is a solution or homogeneous suspension, allow the stock solution to sit at room temperature for 5 min, and confirm and document the appearance of the stock formulation. Dilute the stock solution to the appropriate dose concentrations with 25% HP-BCD/PW. Vortex the final dosing solutions for 30 sec. Final tracer dosing solution is used for generation of the LC/MS/MS calibration standards in the appropriate matrix.
Study populations: Animal studies are performed under protocols approved by Eli Lilly and Company and PreClinOmics Institutional Animal Care and Use Committee. Twenty Sprague-Dawley rats weighing 200-300 g are obtained from Harlan Sprague Dawley Inc. (Indianapolis, Ind.) and are randomized into 4 groups of 5 animals each. Animals have access to food and water ad libitum before the study.
Live Phase Methods: Five animals per dose group are used. Each animal receives 10 μg/kg of the CGRP tracer compound administered intravenously in the lateral tail vein. Animals are euthanized by cervical dislocation followed by decapitation or live decapitation after 5, 10, 20 or 40 min survival intervals.
Trunk blood is collected in EDTA-coated Eppendorf tubes and stored on wet ice until study completion. The whole brain is rapidly removed, and lightly rinsed with sterile water. Frontal cortex, hippocampus, cerebellum, brainstem, and striatum brain tissues are dissected, weighed, stored in 1.5 mL Eppendorf tubes, and placed on wet ice until completion of live phase study.
Using a drug naïve test subject, blood and seven cortical brain tissues samples are collected for use in generating blank and standard curve samples.
Tissue—Tissue samples are kept on wet ice until the completion of the live phase. Tissue samples collected from test and naïve subjects are homogenized at PreClinOmics (Indianapolis, Ind., USA) and immediately taken to AIT Bioscience (Indianapolis, Ind., USA) on wet ice to be centrifuged along with an excel sheet indicating tissue weights, amount of ACN+0.1% HCOOH added to all tissue samples, and how the naive tissues were spiked for standards. Details on processing at PreClinOmics are as follows:
ACN containing 0.1% HCOOH is added to each tissue sample at a volume of four times the weight of the tissue sample (e.g., Add 600 μL ACN to a 150 mg brain tissue). The sample is homogenized via probe sonication. The standard curve is a 6-point curve with the range of 0.3-60 ng/g, linear regression, correlation coefficient, R^2, minimum of ≥0.95. Calibration standards are prepared from control tissue matrix homogenate (of the same organ) spiked with a calculated volume of standard (prepared from the tracer dosing solution used during the live phase). The homogenized tissue samples and spiked standards are transferred to AIT Bioscience on wet ice. Once at AIT Biosciences, all homogenized samples are centrifuged for 20 min at 14,000 rpm. The supernatant solution is diluted with an internal standard solution (1.0 ng/mL diphenhydramine in water) at a ratio of 1:4. Following dilution of the supernatant, if the total sample volume in the well plate is too small for injection, an additional dilution is performed using the mobile phase, ACN:water:0.1% HCOOH (20:80:0.1), at a ratio of 1:1. This solution is mixed thoroughly and analyzed via LC/MS/MS for tracer compound. Additional dilutions incurred due to small sample volume have an appropriate dilution factor applied during regression analysis.
Blood Samples—Whole blood samples are kept on wet ice until the completion of the live phase. […]

[1] = brain stem, read-out: Mean tracer concentration ± SEM, Brain Stem
[2] = cerebellum, read-out: Mean tracer concentration ± SEM, Cerebellum
[3] = frontal cortex, read-out: Mean tracer concentration ± SEM, Frontal Cortex
[4] = hippocampus, read-out: Mean tracer concentration ± SEM, Hippocampus
[5] = plasma, read-out: Mean tracer conc (plasma) ± SEM
[6] = striatum, read-out: Mean tracer concentration ± SEM, Striatum

Row | SMILES | concentration at 5 min [1] [ng/g] | concentration at 10 min [1] [ng/g] | concentration at 20 min [1] [ng/g] | concentration at 40 min [1] [ng/g] | concentration at 5 min [2] [ng/g] | concentration at 10 min [2] [ng/g] | concentration at 20 min [2] [ng/g] | concentration at 40 min [2] [ng/g] | concentration at 5 min [3] [ng/g] | concentration at 10 min [3] [ng/g] | concentration at 20 min [3] [ng/g] | concentration at 40 min [3] [ng/g] | concentration at 5 min [4] [ng/g] | concentration at 10 min [4] [ng/g] | concentration at 20 min [4] [ng/g] | concentration at 40 min [4] [ng/g] | concentration at 5 min [5] [ng/mL] | concentration at 10 min [5] [ng/mL] | concentration at 20 min [5] [ng/mL] | concentration at 40 min [5] [ng/mL] | also measured
1 | Cc1cc(N2CC(F)C2)cc(OCc2ccc([C@@H](C)[C@@]3(C)C(=O)NC[C@@H]3CF)cc2)n1 [Example 3, (3R,4R)-3-[(1R)-1-[4-[[4-(3-fluoroazetidin-1-yl)-6-methyl-2-pyridyl]oxymethyl]phenyl]ethyl]-4-(fluoromethyl)-3-methyl-pyrrolidin-2-one] | 3.13 ± 0.22 | 2.01 ± 0.17 | 1.18 ± 0.06 | 0.42 ± 0.02 | 3.06 ± 0.22 | 1.76 ± 0.13 | 0.88 ± 0.06 | 0.31 ± 0.02 | 3.55 ± 0.33 | 1.92 ± 0.16 | 0.92 ± 0.05 | 0.31 ± 0.02 | 2.9 ± 0.2 | 1.91 ± 0.14 | 1.01 ± 0.06 | 0.34 ± 0.02 | 6.2 ± 0.5 | 3.65 ± 0.26 | 1.94 ± 0.15 | 0.73 ± 0.04 | concentration at 5 min [6]: 3.57 ± 0.28 ng/g; concentration at 10 min [6]: 2.14 ± 0.16 ng/g; concentration at 20 min [6]: 1.09 ± 0.07 ng/g; concentration at 40 min [6]: 0.36 ± 0.04 ng/g
2 | Cc1cc(N2CCC2)cc(OCc2ccc([C@@H](C)[C@@]3(C)C(=O)NC[C@@H]3CF)cc2)n1 [Example 1, (3R,4R)-3-[(1R)-1-[4-[[4-(azetidin-1-yl)-6-methyl-2-pyridyl]oxymethyl]phenyl]ethyl]-4-(fluoromethyl)-3-methyl-pyrrolidin-2-one] | 3.69 ± 0.29 | 2.46 ± 0.09 | 1.21 ± 0.08 | 0.41 ± 0.03 | 3.52 ± 0.16 | 1.91 ± 0.05 | 0.9 ± 0.06 | 0.28 ± 0.02 | 4.19 ± 0.29 | 2.27 ± 0.05 | 0.98 ± 0.06 | 0.29 ± 0.02 | 3.52 ± 0.32 | 2.33 ± 0.09 | 1.06 ± 0.07 | 0.33 ± 0.02 | 6.3 ± 0.63 | 3.37 ± 0.37 | 1.72 ± 0.12 | 0.48 ± 0.05 | concentration at 5 min [6]: 3.94 ± 0.32 ng/g; concentration at 10 min [6]: 2.44 ± 0.13 ng/g; concentration at 20 min [6]: 1.12 ± 0.07 ng/g; concentration at 40 min [6]: 0.34 ± 0.02 ng/g
3 | Cc1cc(N2CC(F)C2)cc(OCc2ccc([C@@H](C)[C@@]3(C)C(=O)NC[C@@H]3C)cc2)n1 [Example 2, (3R,4R)-3-[(1R)-1-[4-[[4-(3-fluoroazetidin-1-yl)-6-methyl-2-pyridyl]oxymethyl]phenyl]ethyl]-3,4-dimethyl-pyrrolidin-2-one] | 8.73 ± 0.51 | 5.27 ± 0.85 | 2.56 ± 0.33 | 1.08 ± 0.08 | 8.76 ± 0.48 | 4.78 ± 0.78 | 2.08 ± 0.22 | 0.88 ± 0.11 | 9.48 ± 0.57 | 5.07 ± 0.56 | 2.19 ± 0.24 | 0.8 ± 0.09 | 7.66 ± 0.42 | 4.64 ± 0.78 | 2.29 ± 0.36 | 0.74 ± 0.14 | 9.82 ± 0.82 | 5.54 ± 0.8 | 2.88 ± 0.37 | 1.03 ± 0.12 | concentration at 5 min [6]: 9.36 ± 0.54 ng/g; concentration at 10 min [6]: 5.23 ± 0.91 ng/g; concentration at 20 min [6]: 2.42 ± 0.28 ng/g; concentration at 40 min [6]: 1.06 ± 0.16 ng/g

Source: patent US20230096051A1, “CGRP ANTIGONISTS USEFUL AS TRACER COMPOUNDS FOR POSITRON EMISSION TOMOGRAPHY” (Eli Lilly and Company, priority 2019, published 2023)
